Measured values taken from patent US4010258A, “Microbial amylase inhibitor and preparation thereof with the use of streptomyces diasticus var. amylostaticus” (Ajinomoto Co., Inc., priority 1974, dated 1977).

Tests used:
[1] = test system: amylase; conditions: prior art statement; cited from earlier work
[2] = test system: trypsin; assay: Action of various proteases on Amylostatin-A; format: in vitro ADME
[3] = target: chymotrypsin (Bos taurus, UniProt P00766); assay: Action of various proteases on Amylostatin-A; format: in vitro ADME
[4] = target: T1, papain (Carica papaya, UniProt P00784); assay: Action of various proteases on Amylostatin-A; format: in vitro ADME
T1 sequence (P00784 134-345): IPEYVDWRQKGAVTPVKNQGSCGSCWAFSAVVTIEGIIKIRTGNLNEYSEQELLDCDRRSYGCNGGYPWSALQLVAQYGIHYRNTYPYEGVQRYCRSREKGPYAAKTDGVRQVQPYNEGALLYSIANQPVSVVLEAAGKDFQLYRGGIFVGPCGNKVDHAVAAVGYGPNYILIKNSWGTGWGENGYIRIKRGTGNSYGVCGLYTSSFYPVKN

[5] = target: pepsin (Sus scrofa, UniProt P00791); assay: Action of various proteases on Amylostatin-A; format: in vitro ADME
pepsin, sequence (P00791 60-385): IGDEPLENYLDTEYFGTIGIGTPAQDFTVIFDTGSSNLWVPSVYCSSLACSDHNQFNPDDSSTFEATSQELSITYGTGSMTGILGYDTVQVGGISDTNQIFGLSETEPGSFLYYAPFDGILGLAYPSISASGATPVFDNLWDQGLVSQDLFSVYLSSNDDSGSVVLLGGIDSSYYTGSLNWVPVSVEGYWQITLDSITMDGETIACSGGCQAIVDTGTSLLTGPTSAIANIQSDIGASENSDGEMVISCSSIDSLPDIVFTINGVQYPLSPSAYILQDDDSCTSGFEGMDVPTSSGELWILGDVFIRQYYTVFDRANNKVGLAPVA

[6] = Stability in buffer solution (pH and heat); format: physicochemical
[7] = Solubility; format: physicochemical
[8] = test system: digestion and absorption of starch; assay: Biological test on digestibility of starch; format: in vivo, male rats of Wistar strain; conditions: rats, 4 hours
Description: An experiment concerning the inhibitory effect of Amylostatin-A on the digestion and absorption of starch in vivo was carried out using sound male rats of Wistar strain weighing from 250 to 300g. After they had been made to fast, receiving only water for 48 hours, 60 rats were selected and divided into 10 groups of each 5 or 10 as shown in Table 4.
Rats in control groups were given either 2.5 ml of an isotonic sodium chloride solution in which 300 mg of soluble starch (Wako Junyaku Co., Inc.) was dissolved or 2.5 ml of an isotonic sodium chloride solution in which 300 mg of corn starch (Japanese Pharmacopia) was suspended. The rats were subjected to a laparotomy, the solution was injected into the stomach and the incision site was sutured. Rats in test groups were given the same amount and kinds of solutions as given to the rats in control groups except that varying amounts of crude Amylostatin-A obtained according to the methods of Example 1 were added as shown in Table 4. The test solutions were administered in the same manner as the control solutions.
After the lapse of definite periods of time, all rats were again laparotomized at the site of the original incision and all contents of the stomach and small intestines were removed by washing with an isotonic sodium chloride solution. To these washings containing residual starch, 25 ml of 1N hydrochloric acid was added. The mixture was heated to carry the hydrolytic reaction to completion and the quantity of reducing sugar formed was determined by Somogyi's method.

[9] = test system: bacterial α-amylase (crystalline); assay: Assay of amylase inhibitory activity (units); format: biochemical; conditions: purified powdery preparation, Example 1
Description: The reaction mixture consisting of 4 ml of a 1.5% soluble starch solution in 0.1M acetate buffer solution at pH 5.5, 0.5 ml of distilled water and 0.5 ml of the amylase solution to be assayed (amylase or bacterial α-amylase (crystalline) ) is incubated at 37° C. for 10 minutes and the reaction is terminated by adding a mixture of 5:1 by volume of 0.5N acetic acid and 0.5N hydrochloric acid. From this solution, 0.2 ml is withdrawn and added to 5 ml of N/3000 iodine solution and the absorbency is measured at 660 nm. The amylase activity per one ml of the enzyme solution expressed in units is calculated as follows: [formula] in which D is the optical density of the enzyme solution and Do is the optical density of the control.
The reaction mixture consisting of 0.5 ml of 2 × 10^^-4 % of bacterial α-amylase (crystalline) and 0.5 ml of the solution of Amylostatin-A is incubated at 37° C. for 10 minutes. Any residual amylase activity is determined according to the method of assay of amylase activity described above. One unit of amylase inhibitory activity is defined as the amount of inhibitory activity necessary to inactivate one unit of amylase.

Molecule	amylase inhibitory activities [1]	inactivation of the inhibitory activity on amylase by protease [2]	inactivation of the inhibitory activity on amylase by protease [3]	inactivation of the inhibitory activity on amylase by protease [4]	inactivation of the inhibitory activity on amylase by protease [5]	Stability ([6]; buffer solution, pH 1 to 12, 37° C. for 12 hours)	Stability ([6]; heated at 100° C. for 30 minutes, pH 1 to 12)	Solubility ([7]; acetone)	Solubility ([7]; chloroform)	Solubility ([7]; ethanol)	Solubility ([7]; methanol)	Solubility ([7]; pyridine)	Solubility ([7]; water)	residual % of starch (average) ([8]; 300 mg cornstarch into the stomach, 2.5 mg crude Amylostatin-A added) [%]	residual % of starch (average) ([8]; 300 mg cornstarch into the stomach, 5 mg crude Amylostatin-A added) [%]	residual % of starch (average) ([8]; 300 mg cornstarch into the stomach, 10 mg crude Amylostatin-A added) [%]	residual % of starch (average) ([8]; 300 mg soluble starch (dissolved on heating) into the stomach, 5 mg crude Amylostatin-A added) [%]	residual % of starch (average) ([8]; 300 mg soluble starch (dissolved on heating) into the stomach, 10 mg crude Amylostatin-A added) [%]	amylase inhibitory activity [9]
OC[C@H]1NC(O)[C@H](O)[C@@H](O)[C@@H]1O (stereo partly shown) [Nojirimycin]	extremely low	–	–	–	–	–	–	–	–	–	–	–	–	–	–	–	–	–	–
Amylostatin-A	–	unable to inactivate	unable to inactivate	unable to inactivate	unable to inactivate	substantial stability	substantial stability	substantially insoluble	substantially insoluble	substantially insoluble	substantially insoluble	soluble	soluble	82.5	93.6	92.5	63.8	65.7	3.5 × 10^4 units per mg
